# Columns and labels:
# Type in all cases: in vivo
# LL/2 = LL/2 syngeneic mouse tumor model, ARI-164 / anti-PD-1 / combination (Example 49)
# Protocol: (§1) In this example, the in vivo anti-tumor efficacy of a combination of ARI-164 with an anti-PD-1 antibody was evaluated using a panel of seven subcutaneous syngeneic mouse tumor models.
# (§2) Seven subcutaneous syngeneic mouse tumor models were generated by innoculating female BALB/C or C57BL/6 mice with cancer cells at their right lower or right front flank followed by randomization as detailed in Table 10 below.
# (§3) A solution of a rat monoclonal anti-mouse PD-1 antibody (isotype IgG2a, κ) at a concentration of 6.61 mg/ml was obtained from BioXcell (InVivoMAb anti-mouse PD-1 (CD279), Clone RMP1-14, Cat #BE0146)) and store at 4° C. The antibody solution was diluted with PBS to obtain a 1 mg/ml dosing solution.
# (§4) ARI-164 powder was stored at −20° C. The powder of the compound was dissolved in DMSO to obtain dosing solutions at 26.7 mg/ml for administration to mice at 40 mg/kg, respectively.
# (§5) Seven studies using the seven subcutaneous syngeneic mouse tumor models were performed. In each study, 80 mice were enrolled and randomly allocated to eight different study groups, with 10 mice in each study group. The mean tumor size at randomization was approximately 80-120 mm^3 (around 100 mm^3). Randomization was performed based on “Matched distribution” randomization method (StudyDirector™ software, version 3.1.399.19). […]
# (§6) The data was collected and analyzed as described above in Example 48.
# MC38 = MC38 syngeneic mouse tumor model, ARI-164 / anti-PD-1 / combination (Example 49)
# Protocol: as §1, §2, §3, §4, §5, §6
# Pan02 = Pan02 syngeneic mouse tumor model, ARI-164 / anti-PD-1 / combination (Example 49)
# Protocol: as §1, §2, §3, §4, §5, §6
# A20 = A20 syngeneic mouse tumor model, ARI-164 / anti-PD-1 / combination (Example 49)
# Protocol: as §1, §2, §3, §4, §5, §6
# H22 = H22 syngeneic mouse tumor model, ARI-164 / anti-PD-1 / combination (Example 49)
# Protocol: as §1, §2, §3, §4, §5, §6
# [1] = intraperitoneal, anti-PD-1 10 mg/kg BIW, ARI-164 40 mg/kg QD
compound,measurement,setting,value
"CC[C@H](O)c1csc(C(=O)c2c[nH]c3cc(F)ccc23)n1 [ARI-164, (S)-(6-Fluoro-1H-indol-3-yl)(4-(1-hydroxypropyl)thiazol-2-yl)methanone]",tumor inhibition (in words),"LL/2; LL/2 model (FIG. 21F), combination with anti-PD-1 antibody, study day 32",tumor inhibition
same,TGI (%),"LL/2; LL/2 model, intraperitoneal, anti-PD-1 10 mg/kg BIW, ARI-164 40 mg/kg QD",42.5%
same,tumor inhibition (in words),"MC38; combination with anti-PD-1 antibody, study day 27",significant tumor inhibition
same,TGI (%),"MC38; intraperitoneal, anti-PD-1 10 mg/kg BIW, ARI-164 160 mg/kg QD",18.8%
same,tumor inhibition (in words),"Pan02; combination with anti-PD-1 antibody, study day 55",increased tumor inhibition
same,TGI (%),Pan02; [1],61.1%
same,tumor inhibition (in words),"A20; combination with anti-PD-1 antibody, study day 28",significant tumor inhibition
same,TGI (%),A20; [1],28.1%
same,tumor inhibition (in words),"H22; combination with anti-PD-1 antibody, study day 24",significant tumor inhibition
same,TGI (%),H22; [1],46.9%

# Source: patent US11390621B2, “Chiral indole compounds and their use” (ARIAGEN, INC., priority 2019, dated 2022)
